Measured values reported in patent publication US20190262330A1, “Method of Treating Hepatocellular Carcinoma Using N-(4-(6,7-dimethoxyquinolin-4-yloxy)phenyl)-N′-(4-fluorophenyl)cyclopropane-1,1-dicarboxamide, (2S)-hydroxybutanedioate” (Exelixis, Inc., priority 2017, published 2019).

Assays:
[1] = tested on: patients with advanced hepatocellular carcinoma; test: Phase 3 CELESTIAL trial, safety; assay type: in vivo, human
Method: Treatment interruptions and dose reductions (to 40 mg and then to 20 mg) were utilized to manage adverse events. Patients received study treatment as long as they experienced clinical benefit as judged by the investigator or until they experienced unacceptable toxicity.
Secondary efficacy endpoints were progression-free survival, defined as the time from randomization to the earlier of radiographic progression or death due to any cause, and objective response rate. Tumor assessments were performed using computed tomography or magnetic resonance imaging at baseline and every 8 weeks after randomization until the later of 8 weeks after radiographic progression or treatment discontinuation. Tumor response and progression were assessed by the investigator using Response Evaluation Criteria In Solid Tumors (RECIST) version 1.1. Eisenhauer E A, Therasse P, Bogaerts J, et al. New response evaluation criteria in solid tumours: revised RECIST guideline (version 1.1). Eur J Cancer 2009; 45:228-47. Safety was continuously evaluated, and the severity of adverse events was assessed by the investigator using the National Cancer Institute Common Terminology Criteria for Adverse Events, version 4. Progression-free survival was tested by stratified log-rank test; significance level 0.04. Overall response rate was tested by 2-sided Fisher's exact test; significance level Of 0.01.
Efficacy was analyzed in all randomized patients by the intent-to-treat principle. Safety was analyzed in all patients who received at least one dose of study treatment. For time-to-event endpoints, hypothesis testing was done using the stratified log-rank test with the stratification factors used for randomization; median durations and associated 95% confidence intervals were estimated using the Kaplan-Meier method. Hazard ratios were estimated using Cox regression models. Hypothesis testing for objective response was done with the Cochran-Mantel-Haenszel method. All subgroup analyses of overall survival and progression-free survival were prespecified except for those based on extrahepatic spread of disease or macrovascular invasion as separate factors or sorafenib as the only prior therapy. For subgroup analyses, no adjustments were made for multiplicity, hazard ratios are unstratified, and confidence intervals are considered descriptive.
Patients on both arms who had disease progression could continue treatment at the discretion of the investigator [see Clinical Studies (14)].

AXL = AXL (Homo sapiens, UniProt P30530); test: In vitro biochemical and/or cellular kinase assays
ROS1 = ROS1 (Homo sapiens, UniProt P08922); test: In vitro biochemical and/or cellular kinase assays
Sequence of ROS1 (P08922 28-2347): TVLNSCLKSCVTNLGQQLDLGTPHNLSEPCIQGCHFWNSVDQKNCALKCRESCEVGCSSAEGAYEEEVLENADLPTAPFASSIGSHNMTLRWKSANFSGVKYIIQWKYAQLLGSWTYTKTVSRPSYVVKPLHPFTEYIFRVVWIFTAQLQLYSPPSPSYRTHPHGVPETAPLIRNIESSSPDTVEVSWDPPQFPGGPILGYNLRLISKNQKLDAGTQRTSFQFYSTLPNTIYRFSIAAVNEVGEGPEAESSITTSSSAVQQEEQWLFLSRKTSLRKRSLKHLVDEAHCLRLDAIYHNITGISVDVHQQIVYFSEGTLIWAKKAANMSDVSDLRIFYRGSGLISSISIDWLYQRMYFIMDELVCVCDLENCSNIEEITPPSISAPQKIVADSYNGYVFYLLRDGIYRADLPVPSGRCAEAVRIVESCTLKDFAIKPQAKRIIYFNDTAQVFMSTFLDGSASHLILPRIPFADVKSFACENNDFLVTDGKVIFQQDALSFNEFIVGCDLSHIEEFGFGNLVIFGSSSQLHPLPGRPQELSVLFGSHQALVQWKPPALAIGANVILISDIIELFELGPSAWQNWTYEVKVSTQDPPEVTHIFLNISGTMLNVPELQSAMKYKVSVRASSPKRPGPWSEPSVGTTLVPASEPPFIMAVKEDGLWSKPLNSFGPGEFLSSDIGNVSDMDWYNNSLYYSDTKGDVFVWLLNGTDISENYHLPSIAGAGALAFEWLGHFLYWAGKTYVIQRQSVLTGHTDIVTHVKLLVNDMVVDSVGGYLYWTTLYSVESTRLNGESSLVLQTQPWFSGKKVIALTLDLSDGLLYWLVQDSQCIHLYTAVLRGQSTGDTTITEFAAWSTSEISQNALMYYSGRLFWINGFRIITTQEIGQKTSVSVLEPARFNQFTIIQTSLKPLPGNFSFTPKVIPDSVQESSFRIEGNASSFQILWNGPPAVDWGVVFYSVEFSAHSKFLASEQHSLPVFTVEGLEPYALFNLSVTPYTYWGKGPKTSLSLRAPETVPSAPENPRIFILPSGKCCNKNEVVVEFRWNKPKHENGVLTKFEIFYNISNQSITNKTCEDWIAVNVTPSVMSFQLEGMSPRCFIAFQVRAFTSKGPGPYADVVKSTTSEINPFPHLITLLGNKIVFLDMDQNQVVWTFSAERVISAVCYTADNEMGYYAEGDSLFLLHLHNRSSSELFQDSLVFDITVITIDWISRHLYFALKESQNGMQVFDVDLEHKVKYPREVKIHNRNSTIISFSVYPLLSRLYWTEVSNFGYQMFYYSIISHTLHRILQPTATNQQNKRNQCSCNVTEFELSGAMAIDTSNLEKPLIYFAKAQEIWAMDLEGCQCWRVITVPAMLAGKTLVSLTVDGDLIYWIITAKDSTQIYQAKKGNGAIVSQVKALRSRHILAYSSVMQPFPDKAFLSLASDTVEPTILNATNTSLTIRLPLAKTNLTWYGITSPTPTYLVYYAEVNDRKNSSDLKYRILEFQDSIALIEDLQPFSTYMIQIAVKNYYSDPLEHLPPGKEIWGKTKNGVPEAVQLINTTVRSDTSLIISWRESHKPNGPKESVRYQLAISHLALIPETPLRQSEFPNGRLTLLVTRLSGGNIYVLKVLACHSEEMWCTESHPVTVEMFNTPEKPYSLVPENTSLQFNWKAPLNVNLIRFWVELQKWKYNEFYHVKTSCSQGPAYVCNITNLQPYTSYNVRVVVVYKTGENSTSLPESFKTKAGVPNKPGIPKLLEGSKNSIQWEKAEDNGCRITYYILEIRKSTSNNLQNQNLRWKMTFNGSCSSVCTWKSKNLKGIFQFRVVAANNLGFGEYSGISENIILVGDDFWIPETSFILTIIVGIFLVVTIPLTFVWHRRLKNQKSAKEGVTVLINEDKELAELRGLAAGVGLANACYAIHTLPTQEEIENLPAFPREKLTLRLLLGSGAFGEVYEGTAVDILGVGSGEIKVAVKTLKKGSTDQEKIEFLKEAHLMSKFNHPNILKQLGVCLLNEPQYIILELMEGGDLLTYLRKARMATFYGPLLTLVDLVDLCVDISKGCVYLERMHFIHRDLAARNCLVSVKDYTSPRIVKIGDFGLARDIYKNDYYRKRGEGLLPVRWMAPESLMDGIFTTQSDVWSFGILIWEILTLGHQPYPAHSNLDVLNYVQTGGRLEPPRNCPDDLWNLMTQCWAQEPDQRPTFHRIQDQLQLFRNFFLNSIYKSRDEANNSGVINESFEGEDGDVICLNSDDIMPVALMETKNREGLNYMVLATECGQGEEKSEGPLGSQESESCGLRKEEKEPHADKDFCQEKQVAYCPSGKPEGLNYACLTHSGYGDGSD

MER = MER (Homo sapiens, UniProt Q12866); test: In vitro biochemical and/or cellular kinase assays
Sequence of MER (Q12866 21-999): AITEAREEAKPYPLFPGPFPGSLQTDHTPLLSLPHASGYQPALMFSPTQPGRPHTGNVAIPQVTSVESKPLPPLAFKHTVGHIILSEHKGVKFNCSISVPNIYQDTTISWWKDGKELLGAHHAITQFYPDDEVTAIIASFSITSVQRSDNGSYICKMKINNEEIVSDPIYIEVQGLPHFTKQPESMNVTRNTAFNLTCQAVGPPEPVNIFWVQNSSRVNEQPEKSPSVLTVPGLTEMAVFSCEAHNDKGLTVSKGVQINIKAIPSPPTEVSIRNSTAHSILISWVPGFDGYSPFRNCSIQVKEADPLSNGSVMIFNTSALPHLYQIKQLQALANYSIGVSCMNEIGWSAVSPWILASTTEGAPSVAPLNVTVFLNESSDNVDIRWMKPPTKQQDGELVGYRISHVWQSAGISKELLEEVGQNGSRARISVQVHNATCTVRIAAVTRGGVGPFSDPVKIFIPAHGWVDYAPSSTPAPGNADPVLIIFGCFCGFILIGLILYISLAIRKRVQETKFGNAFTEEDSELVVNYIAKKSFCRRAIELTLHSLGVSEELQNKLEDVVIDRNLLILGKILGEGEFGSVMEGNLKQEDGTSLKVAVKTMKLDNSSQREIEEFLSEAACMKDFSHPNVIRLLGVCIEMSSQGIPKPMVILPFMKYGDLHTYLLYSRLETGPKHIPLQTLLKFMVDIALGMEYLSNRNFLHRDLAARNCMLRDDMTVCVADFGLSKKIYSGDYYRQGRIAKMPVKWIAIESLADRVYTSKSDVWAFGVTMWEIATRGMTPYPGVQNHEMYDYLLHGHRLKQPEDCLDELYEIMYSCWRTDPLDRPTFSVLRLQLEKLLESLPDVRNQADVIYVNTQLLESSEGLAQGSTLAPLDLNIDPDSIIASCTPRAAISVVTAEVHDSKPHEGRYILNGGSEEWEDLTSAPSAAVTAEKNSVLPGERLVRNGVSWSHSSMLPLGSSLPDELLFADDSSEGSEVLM

KIT = KIT (Homo sapiens, UniProt P10721); test: In vitro biochemical and/or cellular kinase assays
[2] = Clinical pharmacokinetics; assay type: in vivo, human
CYP1A2 [3] = molecular target: CYP1A2 (Homo sapiens, UniProt P05177); test: In vitro metabolic pathways; assay type: in vitro ADME
Sequence of CYP1A2 (Homo sapiens, UniProt P05177) (P05177 whole entry): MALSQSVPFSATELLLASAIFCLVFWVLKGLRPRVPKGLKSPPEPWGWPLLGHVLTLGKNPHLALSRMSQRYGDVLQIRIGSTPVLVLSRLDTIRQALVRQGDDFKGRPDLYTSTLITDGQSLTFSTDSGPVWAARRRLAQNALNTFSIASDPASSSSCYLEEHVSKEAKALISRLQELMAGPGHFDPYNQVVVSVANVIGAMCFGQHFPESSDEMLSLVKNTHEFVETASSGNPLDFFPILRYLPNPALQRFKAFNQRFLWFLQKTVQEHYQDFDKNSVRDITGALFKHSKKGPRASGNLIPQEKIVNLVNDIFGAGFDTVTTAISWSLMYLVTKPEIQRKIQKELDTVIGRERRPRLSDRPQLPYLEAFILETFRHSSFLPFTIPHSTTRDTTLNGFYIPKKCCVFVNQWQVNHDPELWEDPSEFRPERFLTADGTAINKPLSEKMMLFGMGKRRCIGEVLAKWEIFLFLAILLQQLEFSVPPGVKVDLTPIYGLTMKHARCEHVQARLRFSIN

CYP2B6 = CYP2B6 (Homo sapiens, UniProt P20813); test: In vitro metabolic pathways; assay type: in vitro ADME
Sequence of CYP2B6 (P20813 whole entry): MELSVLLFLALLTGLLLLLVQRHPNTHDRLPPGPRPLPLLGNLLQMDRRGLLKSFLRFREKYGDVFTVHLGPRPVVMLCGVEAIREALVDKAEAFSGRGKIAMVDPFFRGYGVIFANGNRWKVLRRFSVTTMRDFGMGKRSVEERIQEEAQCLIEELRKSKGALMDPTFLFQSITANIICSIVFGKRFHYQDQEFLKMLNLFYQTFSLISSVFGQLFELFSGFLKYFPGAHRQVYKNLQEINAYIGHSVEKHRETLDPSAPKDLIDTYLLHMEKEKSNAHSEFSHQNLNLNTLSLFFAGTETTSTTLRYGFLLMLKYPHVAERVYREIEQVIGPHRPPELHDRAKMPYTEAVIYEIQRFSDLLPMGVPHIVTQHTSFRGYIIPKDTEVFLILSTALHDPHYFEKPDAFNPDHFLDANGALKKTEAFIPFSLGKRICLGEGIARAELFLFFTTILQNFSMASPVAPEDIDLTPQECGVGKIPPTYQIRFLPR

CYP2E1 = CYP2E1 (Homo sapiens, UniProt P05181); test: In vitro metabolic pathways; assay type: in vitro ADME
Sequence of CYP2E1 (P05181 whole entry): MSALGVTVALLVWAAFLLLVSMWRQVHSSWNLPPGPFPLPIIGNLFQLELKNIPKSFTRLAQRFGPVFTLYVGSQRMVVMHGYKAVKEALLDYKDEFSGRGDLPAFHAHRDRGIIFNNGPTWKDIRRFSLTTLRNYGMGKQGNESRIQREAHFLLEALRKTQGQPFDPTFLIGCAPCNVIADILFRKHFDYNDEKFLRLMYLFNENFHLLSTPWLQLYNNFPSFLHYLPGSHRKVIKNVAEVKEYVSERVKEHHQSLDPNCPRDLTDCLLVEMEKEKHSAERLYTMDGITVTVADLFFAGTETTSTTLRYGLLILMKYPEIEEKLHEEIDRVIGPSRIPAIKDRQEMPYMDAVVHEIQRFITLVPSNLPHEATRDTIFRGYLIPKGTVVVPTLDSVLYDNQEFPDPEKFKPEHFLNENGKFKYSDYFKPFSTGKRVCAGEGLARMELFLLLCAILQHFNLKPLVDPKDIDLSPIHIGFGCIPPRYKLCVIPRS

CYP1A2 [4] = test: In vitro CYP induction; assay type: in vitro ADME
CYP2C9 = test: In vitro CYP induction; assay type: in vitro ADME
female rats = test: 14-day general toxicology study in female rats; assay type: in vivo, rat; details: 5 mg/kg/day for 14 days

In the case of `COc1cc2nccc(Oc3ccc(NC(=O)C4(C(=O)Nc5ccc(F)cc5)CC4)cc3)c2cc1OC` [cabozantinib], the “Grade 5 adverse events considered related to study treatment” value ([1]; CELESTIAL) is reported as 6 patients, the “Grade 5 adverse events within 30 days of last dose” value ([1]; CELESTIAL) is reported as 12% and the “Adverse events of any grade regardless of causality” value ([1]; human, in vivo) is reported as 99%. The “Adverse events of grade 3 or 4” value ([1]; human, in vivo) was 68%, the Any dose reduction ([1]; human, in vivo) was 62% and the “Diarrhea, Grade 3/4” value ([1]; human, in vivo) was 10%. For the same molecule, the “Discontinuation due to treatment-related adverse event” value ([1]; human, in vivo) was 16%, the “Dose reduction due to diarrhea” value ([1]; human, in vivo) was 10% and the “Dose reduction due to fatigue” value ([1]; human, in vivo) was 7%. The “Dose reduction due to hypertension” value ([1]; human, in vivo) was 7%, the “Dose reduction due to increased aspartate aminotransferase” value ([1]; human, in vivo) was 6% and the “Dose reduction due to palmar-plantar erythrodysesthesia syndrome” value ([1]; human, in vivo) was 22%. For the same molecule, the “Fatigue, Grade 3/4” value ([1]; human, in vivo) was 10%, the “Hypertension, Grade 3/4” value ([1]; human, in vivo) was 16% and the “Increased aspartate aminotransferase, grade 3 or 4 adverse event” value ([1]; human, in vivo) was 12%. For the same molecule, the “Median time to first dose reduction” value ([1]; human, in vivo) was 38 days, the “Palmar-plantar erythrodysesthesia, Grade 3/4” value ([1]; human, in vivo) was 17% and the Serious adverse events ([1]; human, in vivo) was 50%. For the same molecule, the “Tyrosine kinase activity of AXL” value (AXL) was “inhibits”, the “Tyrosine kinase activity of ROS1” value (ROS1) was “inhibits” and the “Tyrosine kinase activity of MER” value (MER) was “inhibits”. For the same molecule, the “Tyrosine kinase activity of KIT” value (KIT) was “inhibits”, the Steady state achieved ([2]; 140 mg daily) was at most 15 days and the Vd/F ([2]; human, plasma, po, read-out: Oral volume of distribution (VZ/F)) was about 319 L. For the same molecule, the Tmax ([2]; human, plasma, oral, read-out: Median time to peak plasma concentrations (Tmax)) was 3 to 4 h, the “Effect of inhibition of CYP1A2 on metabolite formation” value (CYP1A2 [3]) was “no effect” and the “Effect of inhibition of CYP2B6 on metabolite formation” value (CYP2B6) was “no effect”. The “Effect of inhibition of CYP2E1 on metabolite formation” value (CYP2E1) was “no effect”, the “Induction of CYP1A2” value (CYP1A2 [4]) was “does not induce” and the “Induction of CYP2C9” value (CYP2C9) was “does not induce”. For the same molecule, the Ovarian finding (female rats) was “ovarian necrosis”.
